Laboratory results as given in PubChem BioAssay AID248 (DTP/NCI, 2004).
Several values for one entry are separate records, joined by “and”; a condition that tells them apart may be missing. Equal entries are not always repeated. Inconclusive results and toxic doses are left out.

Test system: L1210 leukemia ip in BDF1 mice, survival T/C
Assay: NCI In Vivo Anticancer Drug Screen. Data for tumor model L1210 Leukemia (intraperitoneal) in B6D2F1 (BDF1) mice
Settings: endpoint: mean survival time, higher = longer survival
In short: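 Read-out is survival time, reported as the treated-group measurement over the vehicle-control measurement.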

[1] = dose: 100.0 mg/kg/injection, schedule: Q01DX001 (ip), vehicle: saline
[2] = dose: 200.0 mg/kg/injection, schedule: Q01DX001 (ip), vehicle: saline
[3] = dose: 400.0 mg/kg/injection, schedule: Q01DX001 (ip), vehicle: saline
[4] = dose: 100.0 mg/kg/injection, schedule: Q04DX003 (ip), vehicle: saline
[5] = dose: 200.0 mg/kg/injection, schedule: Q04DX003 (ip), vehicle: saline
[6] = dose: 400.0 mg/kg/injection, schedule: Q04DX003 (ip), vehicle: saline
[7] = dose: 100.0 mg/kg/injection, schedule: Q04DX003 (ip), vehicle: Klucel (hydroxypropylcellulose) (HPC)
[8] = dose: 200.0 mg/kg/injection, schedule: Q04DX003 (ip), vehicle: Klucel (hydroxypropylcellulose) (HPC)
[9] = dose: 25.0 mg/kg/injection, schedule: Q01DX009 (ip), vehicle: other
[10] = dose: 50.0 mg/kg/injection, schedule: Q01DX009 (ip), vehicle: other
[11] = dose: 100.0 mg/kg/injection, schedule: Q01DX001 (ip), vehicle: other
[12] = dose: 400.0 mg/kg/injection, schedule: Q04DX003 (ip), vehicle: Klucel (hydroxypropylcellulose) (HPC)
[13] = dose: 100.0 mg/kg/injection, schedule: Q04DX002 (ip), vehicle: saline with Tween-80
[14] = dose: 200.0 mg/kg/injection, schedule: Q04DX002 (ip), vehicle: saline with Tween-80
[15] = dose: 400.0 mg/kg/injection, schedule: Q04DX002 (ip), vehicle: saline with Tween-80
[16] = dose: 100.0 mg/kg/injection, schedule: Q04DX003 (ip), vehicle: saline with Tween-80
[17] = dose: 200.0 mg/kg/injection, schedule: Q04DX003 (ip), vehicle: saline with Tween-80
[18] = dose: 400.0 mg/kg/injection, schedule: Q04DX003 (ip), vehicle: saline with Tween-80

In the case of CC1(C)C2CCC1(C)C(O)C2=O (stereo not given), the T/C (dose: 75.0 mg/kg/injection, schedule: Q01DX009 (ip), vehicle: saline) is reported as 95 % of control, the T/C (dose: 150.0 mg/kg/injection, schedule: Q01DX009 (ip), vehicle: saline) is reported as 92 % of control and the T/C (dose: 300.0 mg/kg/injection, schedule: Q01DX009 (ip), vehicle: saline) is reported as 95 % of control.
With COc1nc(=O)n(C2OC(CO)C(O)C2O)cc1F (stereo not given) the T/C (dose: 50.0 mg/kg/injection, schedule: Q01DX001 (ip), vehicle: saline) was 95 % of control, the T/C [1] was 90 % of control and the T/C [2] was 93 % of control. The T/C [3] was 90 % of control.
For CC(C)c1c[nH]c(=O)[nH]c1=O, the T/C (dose: 100.0 mg/kg/injection, schedule: Q01DX009 (ip), vehicle: other) was 102 % of control, the T/C [4] was 91 % of control and the T/C (dose: 200.0 mg/kg/injection, schedule: Q01DX009 (ip), vehicle: other) was 96 % of control. The T/C [5] was 93 % of control, the T/C (dose: 400.0 mg/kg/injection, schedule: Q01DX009 (ip), vehicle: other) was 102 % of control and the T/C [6] was 91 % of control.
OC(CN1CCOCC1)c1ccccc1 (stereo not given) was tested, and the T/C (dose: 100.0 mg/kg/injection, schedule: Q01DX009 (ip), vehicle: Klucel (hydroxypropylcellulose) (HPC)) was 94 % of control, the T/C [7] was 98 % of control and the T/C (dose: 200.0 mg/kg/injection, schedule: Q01DX009 (ip), vehicle: Klucel (hydroxypropylcellulose) (HPC)) was 95 % of control. For the same molecule, the T/C [8] was 102 % of control.
In the case of O=C(/C=C\c1ccccc1)C(=O)/C=C/c1ccccc1, the T/C [9] is reported as 93 % of control, the T/C (dose: 25.0 mg/kg/injection, schedule: Q04DX003 (ip), vehicle: Klucel (hydroxypropylcellulose) (HPC)) is reported as 105 % of control and the T/C [10] is reported as 98 % of control. For the same molecule, the T/C (dose: 50.0 mg/kg/injection, schedule: Q04DX003 (ip), vehicle: Klucel (hydroxypropylcellulose) (HPC)) was 94 % of control, the T/C [11] was 89 % of control and the T/C [7] was 86 % of control.
With CN(C(=O)OCc1ccccc1)C(Cc1ccccc1)C(=O)O (stereo not given) the T/C [11] was 95 % of control and the T/C (dose: 200.0 mg/kg/injection, schedule: Q01DX001 (ip), vehicle: other) was 96 % of control.
In the case of CC(=O)OC1=C(c2c(C)cc(C)c(Br)c2C)C(=O)C(OC(C)=O)=C(c2c(C)cc(C)c(Br)c2C)C1=O, the T/C [7] is reported as 104 % of control, the T/C [8] is reported as 100 % of control and the T/C [12] is reported as 98 % of control.
In the case of CCSCC(O)CCl (stereo not given), the T/C (dose: 37.5 mg/kg/injection, schedule: Q04DX002 (ip), vehicle: saline) is reported as 103 % of control, the T/C (dose: 37.5 mg/kg/injection, schedule: Q04DX003 (ip), vehicle: Klucel (hydroxypropylcellulose) (HPC)) is reported as 115 % of control and the T/C (dose: 75.0 mg/kg/injection, schedule: Q04DX002 (ip), vehicle: saline) is reported as 107 % of control. The T/C (dose: 75.0 mg/kg/injection, schedule: Q04DX003 (ip), vehicle: Klucel (hydroxypropylcellulose) (HPC)) was 105 % of control, the T/C (dose: 150.0 mg/kg/injection, schedule: Q04DX002 (ip), vehicle: saline) was 100 % of control and the T/C (dose: 150.0 mg/kg/injection, schedule: Q04DX003 (ip), vehicle: Klucel (hydroxypropylcellulose) (HPC)) was 98 % of control.
For CSC(N(C)c1ccccc1)=[N+](C)c1ccccc1, the T/C [1] was 105 % of control.
In the case of CC(C)(C)c1cc(C=O)cc(C(C)(C)C)c1O, the T/C [13] is reported as 95 % of control, the T/C [14] is reported as 95 % of control and the T/C [15] is reported as 91 % of control.
For CC(C)(C)c1cccc(C(C)(C)C)n1, the T/C [16] was 97 % of control, the T/C [17] was 105 % of control and the T/C [18] was 115 % of control.
O=C1C(=C(c2ccccc2)N2CCCCC2)C(=O)c2ccccc21 was tested, and the T/C [1] was 104 % of control, the T/C [2] was 109 % of control and the T/C [3] was 106 % of control.
With CC1(C)N=C(N)N=C(N)N1c1ccc(CCNS(=O)(=O)c2cccc(S(=O)(=O)F)c2)cc1 the T/C [1] was 96 % of control, the T/C [2] was 94 % of control and the T/C [3] was 96 % of control.
For NC(N)=N/N=C\c1cccc(OCc2ccccc2)c1, the T/C (dose: 15.0 mg/kg/injection, schedule: Q01DX Z (oral), vehicle: saline) was 94 % of control, the T/C (dose: 30.0 mg/kg/injection, schedule: Q01DX Z (oral), vehicle: saline) was 89 % of control and the T/C (dose: 60.0 mg/kg/injection, schedule: Q01DX Z (oral), vehicle: saline) was 93 % of control. The T/C (dose: 120.0 mg/kg/injection, schedule: Q01DX Z (oral), vehicle: saline) was 94 % of control.
With Cc1ccc(C(SCC(N)C(=O)O)(c2ccccc2)c2ccccc2)cc1 (stereo not given) the T/C (dose: 12.5 mg/kg/injection, schedule: Q01DX009 (ip), vehicle: other) was 157 % of control, the T/C (dose: 12.5 mg/kg/injection, schedule: Q01DX009 (ip), vehicle: saline) was 159 % of control and the T/C [9] was 157 % of control. For the same molecule, the T/C (dose: 25.0 mg/kg/injection, schedule: Q01DX009 (ip), vehicle: saline) was 171 % of control, the T/C [10] was 151 % of control and the T/C (dose: 50.0 mg/kg/injection, schedule: Q01DX009 (ip), vehicle: saline) was 204 % of control.
In the case of CC(=O)NN(CCN(NC(C)=O)C(C)=O)C(C)=O, the T/C [4] is reported as 104 % of control, the T/C [5] is reported as 95 % of control and the T/C [6] is reported as 101 % of control.
For CC(=O)OCc1ccc(/C=N/N2C(=O)CSC2=S)o1, the T/C (dose: 75.0 mg/kg/injection, schedule: Q01DX001 (ip), vehicle: carboxymethylcellulose (CMC)) was 105 % of control, the T/C (dose: 150.0 mg/kg/injection, schedule: Q01DX001 (ip), vehicle: carboxymethylcellulose (CMC)) was 100 % of control and the T/C (dose: 300.0 mg/kg/injection, schedule: Q01DX001 (ip), vehicle: carboxymethylcellulose (CMC)) was 97 % of control.
In the case of CC(=O)Oc1cc(-c2ccccc2)c2oc(C)nc2c1-c1ccccc1, the T/C [7] is reported as 101 % of control, the T/C [8] is reported as 103 % of control and the T/C [12] is reported as 93 % of control.
Cc1ccccc1NC(=O)NO was tested, and the T/C (dose: 100.0 mg/kg/injection, schedule: Q01DX001 (ip), vehicle: carboxymethylcellulose (CMC)) was 103 % of control, the T/C (dose: 200.0 mg/kg/injection, schedule: Q01DX001 (ip), vehicle: carboxymethylcellulose (CMC)) was 100 % of control and the T/C (dose: 400.0 mg/kg/injection, schedule: Q01DX001 (ip), vehicle: carboxymethylcellulose (CMC)) was 105 % of control.
With CCOc1ccc(-c2cc(=O)c3c(OC)c(OC)c(OC)c(OC)c3o2)cc1 the T/C (dose: 100.0 mg/kg/injection, schedule: Q01DX001 (sc), vehicle: steriod suspending solution) was 111 % of control, the T/C (dose: 200.0 mg/kg/injection, schedule: Q01DX001 (sc), vehicle: steriod suspending solution) was 96 % of control and the T/C (dose: 400.0 mg/kg/injection, schedule: Q01DX001 (sc), vehicle: steriod suspending solution) was 96 % of control.
COc1cc([N+](=O)[O-])ccc1NC(=S)NC(=O)c1ccc(Cl)cc1Cl was tested, and the T/C (dose: 100.0 mg/kg/injection, schedule: Q01DX001 (ip), vehicle: saline with Tween-80) was 92 % of control, the T/C (dose: 100.0 mg/kg/injection, schedule: Q01DX009 (ip), vehicle: saline with Tween-80) was 91 % of control and 92 % of control and the T/C [13] was 104 % of control and 87 % of control. The T/C [16] was 98 % of control, the T/C (dose: 200.0 mg/kg/injection, schedule: Q01DX001 (ip), vehicle: saline with Tween-80) was 92 % of control and the T/C (dose: 200.0 mg/kg/injection, schedule: Q01DX009 (ip), vehicle: saline with Tween-80) was 95 % of control and 97 % of control. For the same molecule, the T/C [14] was 93 % of control and 97 % of control, the T/C [17] was 92 % of control and the T/C (dose: 400.0 mg/kg/injection, schedule: Q01DX001 (ip), vehicle: saline with Tween-80) was 90 % of control. The T/C (dose: 400.0 mg/kg/injection, schedule: Q01DX009 (ip), vehicle: saline with Tween-80) was 93 % of control and 94 % of control, the T/C [15] was 95 % of control and 87 % of control and the T/C [18] was 88 % of control.
In the case of CC1C(c2ccccc2)CC(c2ccccc2)OS1(=O)=O (stereo not given), the T/C (dose: 100.0 mg/kg/injection, schedule: Q01DX001 (ip), vehicle: Klucel (hydroxypropylcellulose) (HPC)) is reported as 95 % of control, the T/C [7] is reported as 103 % of control and the T/C (dose: 200.0 mg/kg/injection, schedule: Q01DX001 (ip), vehicle: Klucel (hydroxypropylcellulose) (HPC)) is reported as 97 % of control. For the same molecule, the T/C [8] was 94 % of control, the T/C (dose: 400.0 mg/kg/injection, schedule: Q01DX001 (ip), vehicle: Klucel (hydroxypropylcellulose) (HPC)) was 93 % of control and the T/C [12] was 97 % of control.
